Assay in all cases: relative viability (nuclei count vs DMSO), 5 days (fraction); higher = more cells survive
Compound in the assay “Decitabine + Navitoclax”: Nc1ncn([C@H]2C[C@H](O)[C@@H](CO)O2)c(=O)n1 [Decitabine] + CC1(C)CCC(c2ccc(Cl)cc2)=C(CN2CCN(c3ccc(C(=O)NS(=O)(=O)c4ccc(N[C@H](CCN5CCOCC5)CSc5ccccc5)c(S(=O)(=O)C(F)(F)F)c4)cc3)CC2)C1 [Navitoclax] (partner 0.5 µM)
The method, boiled down: (§1)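 Lung cancer cell lines were seeded in 1536-well plates and dosed by pin tool the next day, with either a single drug or a fixed anchor-drug dose combined with five library-drug doses (not always all listed) spaced in √10 steps. Five days later, one step fixed the cells and stained their nuclei (final 0.05% Triton X-100, 1% formaldehyde, 1 ug/ml Hoechst), and nuclei were counted on 4× images. Relative viability is the nuclei count in treated wells divided by the count in vehicle wells, and each value is the median of duplicate plates.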

Compound in the assay “Decitabine + Pictilisib”: Nc1ncn([C@H]2C[C@H](O)[C@@H](CO)O2)c(=O)n1 [Decitabine] + CS(=O)(=O)N1CCN(Cc2cc3nc(-c4cccc5[nH]ncc45)nc(N4CCOCC4)c3s2)CC1 [Pictilisib] (partner 1 µM)
An outline of the steps:
as §1

Compound in the assay “Decitabine + OSI-027”: Nc1ncn([C@H]2C[C@H](O)[C@@H](CO)O2)c(=O)n1 [Decitabine] + COc1cccc2cc(-c3nc([C@H]4CC[C@H](C(=O)O)CC4)n4ncnc(N)c34)[nH]c12 [OSI-027] (partner 0.5 µM)
The method, boiled down:
as §1

Our source for the relative viability values is the supplement of paper PMC10307832.

With NCI-H1395, the relative viability with Decitabine + Navitoclax (first compound 0.04 µM) turned out to be 0.913; with Decitabine + Navitoclax (first compound 0.1265 µM), 0.733; with Decitabine + Navitoclax (first compound 0.4 µM) it was 0.715; in the assay with Decitabine + Navitoclax (first compound 1.265 µM), 0.598; with Decitabine + Navitoclax (first compound 4 µM) it was 0.703; with Decitabine + Pictilisib (first compound 0.04 µM) it was 0.57. Besides, the relative viability with Decitabine + Pictilisib (first compound 0.1265 µM) was 0.579; with Decitabine + Pictilisib (first compound 0.4 µM) it was 0.522; in the assay with Decitabine + Pictilisib (first compound 1.265 µM), 0.417; with Decitabine + Pictilisib (first compound 4 µM), 0.458; with Decitabine + OSI-027 (first compound 0.04 µM), 0.483; with Decitabine + OSI-027 (first compound 0.1265 µM), 0.529. Further, the relative viability is 0.516 in the assay with Decitabine + OSI-027 (first compound 0.4 µM), 0.455 in the assay with Decitabine + OSI-027 (first compound 1.265 µM) and 0.492 in the assay with Decitabine + OSI-027 (first compound 4 µM).
With NCI-H1437, the relative viability is 0.768 in the assay with Decitabine + Navitoclax (first compound 0.04 µM); 0.676 with Decitabine + Navitoclax (first compound 0.1265 µM); 0.371 in the assay with Decitabine + Navitoclax (first compound 0.4 µM); 0.271 in the assay with Decitabine + Navitoclax (first compound 1.265 µM); 0.27 with Decitabine + Navitoclax (first compound 4 µM); 0.455 in the assay with Decitabine + Pictilisib (first compound 0.04 µM). Moreover, the relative viability was found to be 0.408 in the assay with Decitabine + Pictilisib (first compound 0.1265 µM); 0.287 with Decitabine + Pictilisib (first compound 0.4 µM); 0.172 with Decitabine + Pictilisib (first compound 1.265 µM); 0.166 in the assay with Decitabine + Pictilisib (first compound 4 µM); 0.717 with Decitabine + OSI-027 (first compound 0.04 µM); 0.732 with Decitabine + OSI-027 (first compound 0.1265 µM). In addition, the relative viability amounted to 0.495 with Decitabine + OSI-027 (first compound 0.4 µM), 0.382 in the assay with Decitabine + OSI-027 (first compound 1.265 µM) and 0.3 with Decitabine + OSI-027 (first compound 4 µM).
On to NCI-H1650, for which the relative viability in the assay with Decitabine + Navitoclax (first compound 0.04 µM) worked out at 0.546; with Decitabine + Navitoclax (first compound 0.1265 µM), 0.482; with Decitabine + Navitoclax (first compound 0.4 µM), 0.434; with Decitabine + Navitoclax (first compound 1.265 µM), 0.329; with Decitabine + Navitoclax (first compound 4 µM) it was 0.295; with Decitabine + Pictilisib (first compound 0.04 µM), 0.445. Also, the relative viability with Decitabine + Pictilisib (first compound 0.1265 µM) is 0.595; in the assay with Decitabine + Pictilisib (first compound 0.4 µM), 0.272; with Decitabine + Pictilisib (first compound 1.265 µM) it was 0.47; in the assay with Decitabine + Pictilisib (first compound 4 µM) it was 0.399; with Decitabine + OSI-027 (first compound 0.04 µM) it was 0.422; with Decitabine + OSI-027 (first compound 0.1265 µM) it was 0.495. Also, the relative viability with Decitabine + OSI-027 (first compound 0.4 µM) is 0.321; with Decitabine + OSI-027 (first compound 1.265 µM), 0.285; with Decitabine + OSI-027 (first compound 4 µM), 0.341.
NCI-H1651: the relative viability with Decitabine + Navitoclax (first compound 0.04 µM) was 0.893; with Decitabine + Navitoclax (first compound 0.1265 µM), 1.03; with Decitabine + Navitoclax (first compound 0.4 µM) it was 0.958; in the assay with Decitabine + Navitoclax (first compound 1.265 µM) it was 0.684; in the assay with Decitabine + Navitoclax (first compound 4 µM) it was 0.876; with Decitabine + Pictilisib (first compound 0.04 µM), 0.481. Further, the relative viability with Decitabine + Pictilisib (first compound 0.1265 µM) was determined as 0.598; in the assay with Decitabine + Pictilisib (first compound 0.4 µM), 0.624; with Decitabine + Pictilisib (first compound 1.265 µM), 0.503; with Decitabine + Pictilisib (first compound 4 µM), 0.434; with Decitabine + OSI-027 (first compound 0.04 µM) it was 0.586; with Decitabine + OSI-027 (first compound 0.1265 µM), 0.842. For the same cell line, the relative viability with Decitabine + OSI-027 (first compound 0.4 µM) was found to be 0.777; with Decitabine + OSI-027 (first compound 1.265 µM), 0.573; with Decitabine + OSI-027 (first compound 4 µM), 0.478.
NCI-H1666: the relative viability worked out at 0.85 with Decitabine + Navitoclax (first compound 0.04 µM); 0.776 with Decitabine + Navitoclax (first compound 0.1265 µM); 0.687 with Decitabine + Navitoclax (first compound 0.4 µM); 0.465 with Decitabine + Navitoclax (first compound 1.265 µM); 0.487 with Decitabine + Navitoclax (first compound 4 µM); 0.458 in the assay with Decitabine + Pictilisib (first compound 0.04 µM). In addition, the relative viability is 0.478 in the assay with Decitabine + Pictilisib (first compound 0.1265 µM); 0.387 with Decitabine + Pictilisib (first compound 0.4 µM); 0.319 with Decitabine + Pictilisib (first compound 1.265 µM); 0.372 with Decitabine + Pictilisib (first compound 4 µM); 0.785 with Decitabine + OSI-027 (first compound 0.04 µM); 0.82 with Decitabine + OSI-027 (first compound 0.1265 µM). The relative viability was determined as 0.742 in the assay with Decitabine + OSI-027 (first compound 0.4 µM), 0.595 in the assay with Decitabine + OSI-027 (first compound 1.265 µM) and 0.676 in the assay with Decitabine + OSI-027 (first compound 4 µM).
For the cell line NCI-H1734, the relative viability with Decitabine + Navitoclax (first compound 0.04 µM) is 0.583; with Decitabine + Navitoclax (first compound 0.1265 µM), 0.57; with Decitabine + Navitoclax (first compound 0.4 µM), 0.424; with Decitabine + Navitoclax (first compound 1.265 µM), 0.268; with Decitabine + Navitoclax (first compound 4 µM) it was 0.246; with Decitabine + Pictilisib (first compound 0.04 µM), 0.442. Moreover, the relative viability with Decitabine + Pictilisib (first compound 0.1265 µM) came out at 0.453; with Decitabine + Pictilisib (first compound 0.4 µM), 0.443; with Decitabine + Pictilisib (first compound 1.265 µM), 0.342; with Decitabine + Pictilisib (first compound 4 µM), 0.312; in the assay with Decitabine + OSI-027 (first compound 0.04 µM) it was 0.506; in the assay with Decitabine + OSI-027 (first compound 0.1265 µM) it was 0.554. The relative viability in the assay with Decitabine + OSI-027 (first compound 0.4 µM) is 0.578; with Decitabine + OSI-027 (first compound 1.265 µM), 0.368; in the assay with Decitabine + OSI-027 (first compound 4 µM) it was 0.266.
As to NCI-H1755, the relative viability is 0.912 with Decitabine + Navitoclax (first compound 0.04 µM); 0.887 with Decitabine + Navitoclax (first compound 0.1265 µM); 0.696 with Decitabine + Navitoclax (first compound 0.4 µM); 0.521 in the assay with Decitabine + Navitoclax (first compound 1.265 µM); 0.302 with Decitabine + Navitoclax (first compound 4 µM); 0.385 with Decitabine + Pictilisib (first compound 0.04 µM). Besides, the relative viability with Decitabine + Pictilisib (first compound 0.1265 µM) amounted to 0.411; in the assay with Decitabine + Pictilisib (first compound 0.4 µM) it was 0.291; in the assay with Decitabine + Pictilisib (first compound 1.265 µM), 0.365; in the assay with Decitabine + Pictilisib (first compound 4 µM), 0.343; in the assay with Decitabine + OSI-027 (first compound 0.04 µM), 0.642; with Decitabine + OSI-027 (first compound 0.1265 µM) it was 0.669. Further, the figures for the relative viability with Decitabine + OSI-027 (first compound 0.4 µM), with Decitabine + OSI-027 (first compound 1.265 µM) and with Decitabine + OSI-027 (first compound 4 µM) were 0.534, 0.571 and 0.52, respectively.
